Values of other authors in patent publication US20040192658A1, “Compositions and methods of using collajolie” (Angiotech International AG, priority 2002, published 2004).

T1: interstitial collagenase (Homo sapiens, UniProt P03956)
T1 sequence (P03956 100-469): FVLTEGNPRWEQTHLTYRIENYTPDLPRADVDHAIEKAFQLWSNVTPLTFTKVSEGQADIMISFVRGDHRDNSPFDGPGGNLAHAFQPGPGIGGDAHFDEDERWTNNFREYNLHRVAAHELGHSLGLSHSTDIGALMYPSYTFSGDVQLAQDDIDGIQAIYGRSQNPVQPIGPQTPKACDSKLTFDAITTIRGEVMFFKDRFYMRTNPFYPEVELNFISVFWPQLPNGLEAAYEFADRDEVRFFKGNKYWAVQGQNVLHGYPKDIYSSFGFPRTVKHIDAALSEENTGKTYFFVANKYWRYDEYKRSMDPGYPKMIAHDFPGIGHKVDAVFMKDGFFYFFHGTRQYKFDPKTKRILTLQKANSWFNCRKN

T2: gelatinase A (Homo sapiens, UniProt P08253)
T2 sequence (P08253 110-660): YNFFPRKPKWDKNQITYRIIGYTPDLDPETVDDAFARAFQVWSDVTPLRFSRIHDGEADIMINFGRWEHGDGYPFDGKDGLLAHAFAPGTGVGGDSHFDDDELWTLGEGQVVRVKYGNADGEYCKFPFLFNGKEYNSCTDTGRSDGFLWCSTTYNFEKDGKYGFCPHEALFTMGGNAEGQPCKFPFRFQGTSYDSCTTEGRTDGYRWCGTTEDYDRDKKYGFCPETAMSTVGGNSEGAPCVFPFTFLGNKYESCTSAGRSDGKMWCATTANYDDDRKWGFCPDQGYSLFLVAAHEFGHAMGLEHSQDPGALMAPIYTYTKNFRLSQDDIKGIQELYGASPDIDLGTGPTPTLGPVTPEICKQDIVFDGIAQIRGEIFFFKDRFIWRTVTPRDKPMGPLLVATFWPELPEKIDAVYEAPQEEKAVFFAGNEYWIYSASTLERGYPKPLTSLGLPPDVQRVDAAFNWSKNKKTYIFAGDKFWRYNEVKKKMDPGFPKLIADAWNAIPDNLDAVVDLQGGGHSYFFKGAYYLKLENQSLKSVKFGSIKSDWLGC

T3: collagenase 1 (Homo sapiens, UniProt P03956)
T3 sequence (P03956 100-469): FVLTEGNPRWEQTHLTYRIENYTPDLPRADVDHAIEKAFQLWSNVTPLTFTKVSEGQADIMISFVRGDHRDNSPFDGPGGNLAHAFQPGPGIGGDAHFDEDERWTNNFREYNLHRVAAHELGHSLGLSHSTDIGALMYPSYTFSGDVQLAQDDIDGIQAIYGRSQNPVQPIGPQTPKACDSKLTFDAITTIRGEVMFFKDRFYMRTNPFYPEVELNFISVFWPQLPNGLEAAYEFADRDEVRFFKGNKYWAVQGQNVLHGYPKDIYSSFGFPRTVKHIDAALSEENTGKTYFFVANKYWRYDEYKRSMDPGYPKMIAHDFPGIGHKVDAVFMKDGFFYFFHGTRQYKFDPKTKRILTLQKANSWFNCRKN


What was measured:
interstitial collagenase = target: T1, interstitial collagenase; settings: compared with TIMP-2
gelatinase A = target: T2, gelatinase A
gelatinase B = gelatinase B (Homo sapiens, UniProt P14780)
collagenase 1 = target: T3, collagenase 1

Chain of gelatinase B (P14780 94-707, species assumed): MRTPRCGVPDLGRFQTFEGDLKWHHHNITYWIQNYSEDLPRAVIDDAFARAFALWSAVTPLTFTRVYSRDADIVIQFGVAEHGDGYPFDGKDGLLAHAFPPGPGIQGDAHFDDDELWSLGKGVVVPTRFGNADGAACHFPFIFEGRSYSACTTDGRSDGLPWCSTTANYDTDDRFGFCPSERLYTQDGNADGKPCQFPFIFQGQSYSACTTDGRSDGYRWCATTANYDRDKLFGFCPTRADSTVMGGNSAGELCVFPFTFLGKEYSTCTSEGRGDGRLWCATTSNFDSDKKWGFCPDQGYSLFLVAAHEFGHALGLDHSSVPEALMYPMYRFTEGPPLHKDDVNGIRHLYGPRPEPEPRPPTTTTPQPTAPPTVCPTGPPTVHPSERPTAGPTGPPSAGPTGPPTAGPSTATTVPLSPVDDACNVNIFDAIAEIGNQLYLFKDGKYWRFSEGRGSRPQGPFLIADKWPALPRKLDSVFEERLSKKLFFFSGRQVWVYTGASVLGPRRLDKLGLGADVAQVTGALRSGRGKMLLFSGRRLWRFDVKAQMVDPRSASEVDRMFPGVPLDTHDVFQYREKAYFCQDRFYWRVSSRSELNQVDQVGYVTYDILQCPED

Row | Molecule | well tolerated daily dosage [mg] | established (well) tolerated single dose [mg] | further results
1 | CNC(=O)[C@@H](NC(=O)[C@H](CC(C)C)[C@H](O)C(=O)NO)C(C)(C)C | – | – | established well tolerated single daily dose (single daily dose): 50 mg
2 | CN(C)[C@@H]1C(O)=C(C(N)=O)C(=O)[C@@]2(O)C(O)=C3C(=O)c4c(O)cccc4[C@@](C)(O)C3C[C@@H]12 (stereo in doubt) [tetracycline, 4-(dimethylamino)-1,4,4a,5,5a,6,11,12a-octahydro-3,6,10,12,12a-pentahydroxy-6-methyl-1,11-dioxo-2-naphthacenecarboxamide] | 1000 | 1000 | –
3 | CN1C(=O)N(C[C@H](C(=O)NO)[C@@H](CC2CCCC2)C(=O)N2CCCCC2)C(=O)C1(C)C [TROCADE] | – | 150 | –
4 | C[C@H]1c2cccc(O)c2C(=O)C2=C(O)[C@]3(O)C(=O)C(C(N)=O)=C(O)[C@@H](N(C)C)[C@@H]3[C@@H](O)[C@@H]21 [doxycycline, α-6-deoxy-5-hydroxy-tetracycline] | 100 | 200 | –
5 | CN(C)c1ccc(O)c2c1C[C@H]1C[C@H]3[C@H](N(C)C)C(O)=C(C(N)=O)C(=O)[C@@]3(O)C(O)=C1C2=O [minocycline, 7-dimethylamino-6-dimethyl-6-deoxytetracycline] | 200 | 200 | –
6 | TIMP-1: 30 kD Tissue Inhibitor of Matrix Metalloproteinase, the most commonly expressed TIMP molecule | – | – | inhibition of interstitial collagenase (interstitial collagenase): better inhibitor of interstitial collagenase than TIMP-2
7 | TIMP-3: 21 kD Tissue Inhibitor of Matrix Metalloproteinase (protein, UniProt P35625 24-211, looked up) Metalloproteinase inhibitor 3: CTCSPSHPQDAFCNSDIVIRAKVVGKKLVKEGPFGTLVYTIKQMKMYRGFTKMPHVQYIHTEASESLCGLKLEVNKYQYLLTGRVYDGKMYTGLCNFVERWDQLTLSQRKGLNYRYHLGCNCKIKSCYYLPCFVTSKNECLWTDMLSNFGYPGYQSKHYACIRQKGGYCSWYRGWAPPDKSIINATDP | – | – | inhibition of gelatinase A (gelatinase A): inhibits; inhibition of gelatinase B (gelatinase B): inhibits; inhibition of collagenase 1 (collagenase 1): inhibits; inhibition of stromelysin (stromelysin): inhibits
